# Data from article PMC5974751, “NKp44-Derived Peptide Binds Proliferating Cell Nuclear Antigen and Mediates Tumor Cell Death” (Frontiers in Immunology, 2018).
# Tests used:
# [1] = tested on: recombinant human PCNA (hPCNA); assay: ELISA binding of biotinylated NKp44-derived peptides to plate-bound recombinant PCNA; conditions: biotinylated peptide, 0–7.24 µM (Figure 1A), streptavidin-HRP, TMB, O.D. 650 nm
# Method: The pET-28 or pMAL-c2x vectors were used to produce soluble human PCNA (hPCNA) in Rosetta™ 2 (DE3) cells. Plasmids containing the mRNA sequence of PCNA or TL1A, APO-E3, HNF4 were transformed into Rosetta™ 2 cells via heat shock and grown on LB agar plates with kanamycin and chloramphenicol. A fresh colony of transformed bacteria was grown overnight in a 5 ml of LB with kanamycin and chloramphenicol an incubator shaker set to 37°C and at 250 rpm. The next day, bacteria cells were diluted 1:100 into a 500 ml of LB with kanamycin and chloramphenicol (to discard dead cells) and grown to an optical density (O.D.) of 0.6–0.8 (λ = 650 nm). Isopropyl β-D-1-thiogalactopyranoside (0.5 mM) was added for the induction of the PCNA production, and cells were further incubated for 4 h at 26°C (hPCNA). Cells were then centrifuged and the pellet was resuspended with solution A (20 mM Tris–HCl pH 8.0, 0.5 M NaCl, 20 mM imidazole), sonicated six times (20 s with 40 s intervals) and sieved through […] (Sartorius Stedim Biotech) filter before loaded on a His-tag or Amylose resin beads. Purification of His-tagged proteins was done using a Gravity-flow Column with “HisPur™ Ni-NTA Resin” Bead kit (Thermo-Scientific) (binding capacity ≤ 60 mg of a 28 kDa 6xHis-tagged protein from a bacterial source per milliliter of settled resin) according to Kits Protocol. Purification of MBP-tagged proteins was done using the Amylose resin beads (Catalog # E8035S).
# To determine the interaction between NKp44-derived peptides and PCNA, ELISA plates were coated overnight at 4°C with 2 µg/ml of the recombinant PCNA or TLA1 ([49]), APO-E3 ([50]), HNF4 ([4]), rhFc, rhNKp44-hFc ([12]), rhNKp46-hFc ([51]), and PBS 1× (negative controls). Blocking buffer (PBS + 2.5% skim milk) was applied for 2 h at room temperature, after that the plates were incubated with 0–8 µM of biotinylated NKp44-derived peptides or PBS 1× (background control) for 2 h at room temperature. NKp44-derived peptides binding to PCNA was detected using horseradish peroxidase (HRP)-conjugated to streptavidin (1 h at 1:500 dilution). Following washing, TMB (DAKO, S1599) was added. O.D. was read at 650 nm (Thermo Electron Corporation Multiskan Spectrum). Between each step, wells were washed three times with PBS containing 0.05% Tween 20 (PBST).
# [2] = tested on: NK92-44-1 cells (NK92 overexpressing NKp44-1 splice variant); assay: IFNγ secretion assay of NK92-44-1 cells co-incubated with PANC-1 cells; format: cell-based, human; conditions: NK92-44-1 with HLA-I positive PANC-1, E:T 1:2; peptide 10 or 20 µg/well
# Method: IFNγ secretion assay and ELISA assay were done as previously described ([11], [12]). NKp44-pep8, pep9, and pep10 (10 or 20 µg) were added to the IFNγ secretion assay.
# Figure 1 Recognition of recombinant human PCNA (hPCNA) by NKp44-derived pep8 (NKp44-pep8). (A) ELISA assay representing the binding curve of biotinylated NKp44-derived pep5, pep8, and pep10 at a peptide concentration range of 0–7.24 µM to plate bond hPCNA. (B) IFNγ secretion assay of NK92-44-1 cells co-incubate with the HLA positive cell line PANC-1 (E:T ration of 1:2) in the presence of NKp44-pep8 (10 or 20 μg/well), NKp44-derived pep5 was used as negative control. Note that when we apply to NK92-44-1 pep8 (without target cells), activation of IFNγ secretion is minimal and less/similar to the observed activation when applying the pep5 negative control. (C) ELISA assay of blocking NKp44–proliferating cell nuclear antigen (PCNA) interaction via NKp44-pep8. NKp44-derived pep5 was used as a negative control. No peptide represents the maximal binding capacity of NKp44 to hPCNA. (D) ELISA assay showing the specific recognition of NKp44-pep8 (5 µg/ml) to hPCNA relative to TL1A, APO-E3, HNF4, NKp44-Ig, hNKp46-Ig, hFc. (E) ProteOn array showing the binding of hPCNA at protein concentration range of 0–250 nM to bond NKp44-pep8. 0 nM (X base-line), 15.6 nM (yellow), 31.2 (purple), 62.5 nM (green), 125 nM (blue), and 250 nM (red).
# NKp44–PCNA interaction = assay: ELISA blocking of NKp44-hFc interaction with PCNA; format: binding; conditions: peptide 0–10 µM, NKp44-hFc 80 nM, anti-human IgG-HRP, O.D. 650 nm, negative control pep5
# Method: To determine the ability of NKp44-pep8 to block NKp44-hFc interaction with PCNA, ELISA plates were coated overnight at 4°C with 2 µg/ml of the recombinant PCNA, blocking buffer (PBS + 2.5% skim milk) was applied for 2 h at room temperature, after which the plates were incubated with 0–10 µM of biotinylated NKp44-derived peptides or PBS 1× (100 μl/well, background control) for 2 h at room temperature and then NKp44-hFc (80 nM, 20 µl/well) was added without washing for 1 h at room temperature. NKp44-hFc binding to PCNA was detected using HRP conjugated to antihuman IgG (1 h at 1:400 dilution 100 μl/well). Following washing, TMB (100 μl/well DAKO, S1599) was added. O.D. was read at 650 nm (Thermo Electron Corporation Multiskan Spectrum). Between each step, wells were washed three times with 200 μl/well PBS 1× containing 0.05% Tween 20 (PBST).
sequence,measurement,setting,value
"VTSSKPRTVAWTSRFTIWAA [pep10, NKp44-derived 20mer peptide, amino acids 67–86]",binding to recombinant hPCNA,[1],also bound to PCNA but to a lesser extent as compared with pep8
same,IFNγ secretion / NK92 cell function in presence of peptide,[2],but not pep10 could block NKp44–PCNA interaction and upregulate NK92 cell function
same,inhibition of rhNKp44 binding to PCNA,NKp44–PCNA interaction,but not pep10 could block NKp44–PCNA interaction
